Source: publication PMC10762078, “Role of UPF1-LIN28A interaction during early differentiation of pluripotent stem cells” (Nature Communications, 2024)
Ends that are not written are not given here.

Columns and labels:
hPSCs = test: RT-qPCR of pluripotency and germ-layer markers during differentiation with CPP-peptides (Supplementary Fig. 7b-e); format: cell-based, human; conditions: for GATA4 (RT-qPCR) / SOX17 (RT-qPCR): Fig. s7e
Protocol: For CPP-conjugated peptide delivery, HeLa, 293T, and PA-1 cells were incubated with CPP-conjugated peptides or CPP-FITC at 2 μM in DMEM with 10% FBS for 12 h a day before cell harvest. hPSCs were treated with CPP-conjugated peptides at 10 μM in mTeSR Plus Medium, and the peptide-containing medium was changed every day over 10 days. The ROCK inhibitor (Tocris Bioscience, Y-27632) treated-hPSCs were dissociated into single cells using Accutase (Merck, SCR005) and differentiated into ectoderm, mesoderm, and endoderm using the STEMdiff Trilineage Differentiation Kit ([…] Technologies, 05230) following the manufacturer’s protocol. Differentiated cells treated with CPP-conjugated peptides were analysed at 0, 3, and 5 days for ectoderm and endoderm, and at 0, 3, and 4 days for mesoderm. […]
cDNA was synthesised using RevertAid Reverse Transcriptase (Thermo Fisher Scientific, EP0441) with synthesised random hexamer (Macrogen) for total RNA or stem-loop primers for miRNA. For RT-qPCR reactions, the SensiFAST SYBR No-ROX kit (Meridian Bioscience) was used according to the manufacturer’s protocol. All data analysis and visualisation were conducted using R 3.6.1 [www.r-project.org] or GraphPad Prism 10. RT primers for miRNA and RT-qPCR primer sequences are provided in Supplementary Data 6. […]
FPKM of each gene was presented f r om RNA-seq analysis. b–e hPSCs wer e treated with the indicated peptide during each germ la ye r differentiation. […]
An unpaired Student’s t-test was used for a–e. Data are presented as mean values ± SEM. All statistical test us ed wer e two-s ided. T he m inim um number of independent biological replicate experim ents was a–f n = 3. T he experiments wer e conducted three tim es, each iteration producing consistent results.

CHA15 cells = test: Flow cytometry of SOX1, DLK1 and LHX2 during ectodermal differentiation (Fig. 7b, Supplementary Fig. 7f); format: cell-based, human; set-up: unit not given here
Protocol: For CPP-conjugated peptide delivery, HeLa, 293T, and PA-1 cells were incubated with CPP-conjugated peptides or CPP-FITC at 2 μM in DMEM with 10% FBS for 12 h a day before cell harvest. hPSCs were treated with CPP-conjugated peptides at 10 μM in mTeSR Plus Medium, and the peptide-containing medium was changed every day over 10 days. The ROCK inhibitor (Tocris Bioscience, Y-27632) treated-hPSCs were dissociated into single cells using Accutase (Merck, SCR005) and differentiated into ectoderm, mesoderm, and endoderm using the STEMdiff Trilineage Differentiation Kit ([…] Technologies, 05230) following the manufacturer’s protocol. Differentiated cells treated with CPP-conjugated peptides were analysed at 0, 3, and 5 days for ectoderm and endoderm, and at 0, 3, and 4 days for mesoderm.
To evaluate the relative cell number expressing the indicated proteins, CHA15 cells with the indicated CPP-conjugated peptide were fixed with BD Cytofix Fixation Buffer (BD Biosciences Pharmingen, 554655) followed by permeabilization with 0.1% BSA/PBS solution supplemented with 10% NGS and 0.3% Triton X-100 for 1 h at 4 °C. After washing, cells were incubated with the primary antibodies (OCT4 1:1000, NANOG 1:1000, DLK1 1:1000, SOX2 1:1000, LHX2 1:1000) and then, secondary antibody, Alexa Fluor 488 (1:1000), was applied. The positive cells were determined using flow cytometry (FACSCanto, BD Pharmingen), and data was analysed using the Flow Jo-v10 software program.

[1] = Fig. s7d, day 3, mean of 3 replicates
[2] = Fig. s7d, day 4, mean of 3 replicates
[3] = mean from t test output, scale differs from set1-set3 values
[4] = vs. P1, ± SEM, unpaired t test, df=4

With KKKWCRKKKSSADEKRYRALKRTAERELLMNA [P8] the “CXCR4 mRNA level (RT-qPCR)” value (hPSCs; Fig. s7d, Day 3, replicate 3) was 641.469, the “SNAI1 mRNA level (RT-qPCR)” value (hPSCs; Fig. s7d, Day 3, replicate 3) was 12.7742 and the “TBXT mRNA level (RT-qPCR)” value (hPSCs; Fig. s7d, Day 3, replicate 3) was 4804.52. For the same sequence, the “BMP2 mRNA level (RT-qPCR)” value (hPSCs; Fig. s7d, Day 4, replicate 1) was 0.2478, the “BMP4 mRNA level (RT-qPCR)” value (hPSCs; Fig. s7d, Day 4, replicate 1) was 31.2396 and the “CDH2 mRNA level (RT-qPCR)” value (hPSCs; Fig. s7d, Day 4, replicate 1) was 14.5509. The “CXCR4 mRNA level (RT-qPCR)” value (hPSCs; Fig. s7d, Day 4, replicate 1) was 668.803, the “SNAI1 mRNA level (RT-qPCR)” value (hPSCs; Fig. s7d, Day 4, replicate 1) was 16.3401 and the “TBXT mRNA level (RT-qPCR)” value (hPSCs; Fig. s7d, Day 4, replicate 1) was 2083. The “BMP2 mRNA level (RT-qPCR)” value (hPSCs; Fig. s7d, Day 4, replicate 2) was 0.261, the “BMP4 mRNA level (RT-qPCR)” value (hPSCs; Fig. s7d, Day 4, replicate 2) was 27.7899 and the “CDH2 mRNA level (RT-qPCR)” value (hPSCs; Fig. s7d, Day 4, replicate 2) was 13.2223. The “CXCR4 mRNA level (RT-qPCR)” value (hPSCs; Fig. s7d, Day 4, replicate 2) was 587.806, the “SNAI1 mRNA level (RT-qPCR)” value (hPSCs; Fig. s7d, Day 4, replicate 2) was 17.9864 and the “TBXT mRNA level (RT-qPCR)” value (hPSCs; Fig. s7d, Day 4, replicate 2) was 2236.13. For the same sequence, the “BMP2 mRNA level (RT-qPCR)” value (hPSCs; Fig. s7d, Day 4, replicate 3) was 0.2852, the “BMP4 mRNA level (RT-qPCR)” value (hPSCs; Fig. s7d, Day 4, replicate 3) was 35.8542 and the “CDH2 mRNA level (RT-qPCR)” value (hPSCs; Fig. s7d, Day 4, replicate 3) was 15.5934. The “CXCR4 mRNA level (RT-qPCR)” value (hPSCs; Fig. s7d, Day 4, replicate 3) was 589.372, the “SNAI1 mRNA level (RT-qPCR)” value (hPSCs; Fig. s7d, Day 4, replicate 3) was 18.1009 and the “TBXT mRNA level (RT-qPCR)” value (hPSCs; Fig. s7d, Day 4, replicate 3) was 2648.18. For the same sequence, the “SNAI1 difference between means (P8 - P1) ± SEM” value (hPSCs; Fig. s7d, day 3, P8 vs. P1) was -10.01 ± 2.987, the “SNAI1 difference between means, 95% confidence interval” value (hPSCs; Fig. s7d, day 3, P8 vs. P1) was -18.30 to -1.717 and the “TBXT difference between means (P8 - P1) ± SEM” value (hPSCs; Fig. s7d, day 3, P8 vs. P1) was -3827 ± 1244. The “TBXT difference between means, 95% confidence interval” value (hPSCs; Fig. s7d, day 3, P8 vs. P1) was -7280 to -372.8, the “SNAI1 mRNA level (RT-qPCR), mean” value (hPSCs; [1]) was 12.93 and the “TBXT mRNA level (RT-qPCR), mean” value (hPSCs; [1]) was 4321. The “BMP4 difference between means (P8 - P1) ± SEM” value (hPSCs; Fig. s7d, day 4, P8 vs. P1) was 18.59 ± 2.500, the “BMP4 difference between means, 95% confidence interval” value (hPSCs; Fig. s7d, day 4, P8 vs. P1) was 11.65 to 25.53 and the “CDH2 difference between means (P8 - P1) ± SEM” value (hPSCs; Fig. s7d, day 4, P8 vs. P1) was -2.944 ± 0.7977. For the same sequence, the “CDH2 difference between means, 95% confidence interval” value (hPSCs; Fig. s7d, day 4, P8 vs. P1) was -5.158 to -0.7287, the “TBXT difference between means (P8 - P1) ± SEM” value (hPSCs; Fig. s7d, day 4, P8 vs. P1) was -1631 ± 305.2 and the “TBXT difference between means, 95% confidence interval” value (hPSCs; Fig. s7d, day 4, P8 vs. P1) was -2478 to -783.3. The “BMP4 mRNA level (RT-qPCR), mean” value (hPSCs; [2]) was 31.63, the “CDH2 mRNA level (RT-qPCR), mean” value (hPSCs; [2]) was 14.46 and the “TBXT mRNA level (RT-qPCR), mean” value (hPSCs; [2]) was 2322. For the same sequence, the “GATA4 (RT-qPCR)” value (hPSCs; Day 0, replicate 1) was 0.7242, the “GATA4 (RT-qPCR)” value (hPSCs; Day 0, replicate 2) was 1.3517 and the “GATA4 (RT-qPCR)” value (hPSCs; Day 0, replicate 3) was 0.9241. For the same sequence, the “GATA4 (RT-qPCR)” value (hPSCs; Day 3, replicate 1) was 32.2, the “GATA4 (RT-qPCR)” value (hPSCs; Day 3, replicate 2) was 35.8526 and the “GATA4 (RT-qPCR)” value (hPSCs; Day 3, replicate 3) was 22.1669. The “GATA4 (RT-qPCR)” value (hPSCs; Day 5, replicate 1) was 75.9376, the “GATA4 (RT-qPCR)” value (hPSCs; Day 5, replicate 2) was 69.9276 and the “GATA4 (RT-qPCR)” value (hPSCs; Day 5, replicate 3) was 152.842. For the same sequence, the “SOX17 (RT-qPCR)” value (hPSCs; Day 0, replicate 1) was 1.264, the “SOX17 (RT-qPCR)” value (hPSCs; Day 0, replicate 2) was 0.8709 and the “SOX17 (RT-qPCR)” value (hPSCs; Day 0, replicate 3) was 0.8647. For the same sequence, the “SOX17 (RT-qPCR)” value (hPSCs; Day 3, replicate 1) was 2247.1, the “SOX17 (RT-qPCR)” value (hPSCs; Day 3, replicate 2) was 1796.71 and the “SOX17 (RT-qPCR)” value (hPSCs; Day 3, replicate 3) was 1610.91. The “SOX17 (RT-qPCR)” value (hPSCs; Day 5, replicate 1) was 1021.85, the “SOX17 (RT-qPCR)” value (hPSCs; Day 5, replicate 2) was 1109.15 and the “SOX17 (RT-qPCR)” value (hPSCs; Day 5, replicate 3) was 1096.19. The “DLK1 FACS, mean” value (CHA15 cells; [3]) was 8315, the “LHX2 FACS, mean” value (CHA15 cells; [3]) was 9545 and the “SOX1 FACS, mean” value (CHA15 cells; [3]) was 5506. For the same sequence, the “DLK1 FACS, difference between means ± SEM” value (CHA15 cells; [4]) was 1682 ± 236.3, the “LHX2 FACS, difference between means ± SEM” value (CHA15 cells; [4]) was 3433 ± 333.3 and the “SOX1 FACS, difference between means ± SEM” value (CHA15 cells; [4]) was -2997 ± 246.0.
